Measurements published in ChEMBL document CHEMBL1153022, “Pyrrolidinoindoline alkaloids from Selaginella moellendorfii” (J Nat Prod, 2009).
Activity calls are given as the source filed them. The calls are words filed in the database; no cut-off is given here.

Tests used:
[1] = target: Acetylcholinesterase (Homo sapiens) (UniProt P22303); assay: Inhibition of human AChE up to 200 ug/ml by Ellman's assay
Staphylococcus aureus = assay: Antibacterial activity against Staphylococcus aureus up to 200 ug/ml by microdilution assay; format: functional, organism-based
K562 [2] = assay: Cytotoxicity against human K562 cells up to 200 ug/ml by MTT assay; format: functional, cell-based
Escherichia coli = assay: Antibacterial activity against Escherichia coli up to 200 ug/ml by microdilution assay; format: functional, organism-based
A549 [3] = assay: Cytotoxicity against human A549 cells up to 200 ug/ml by SRB method; format: functional, cell-based
A549 [4] = assay: cells; conditions: Homo sapiens
Description: Cytotoxicity against human A549 cells by SRB method

K562 [5] = assay: cells; conditions: Homo sapiens
Description: Cytotoxicity against human K562 cells by MTT assay

Sequence of Acetylcholinesterase (Homo sapiens) (P22303 whole entry): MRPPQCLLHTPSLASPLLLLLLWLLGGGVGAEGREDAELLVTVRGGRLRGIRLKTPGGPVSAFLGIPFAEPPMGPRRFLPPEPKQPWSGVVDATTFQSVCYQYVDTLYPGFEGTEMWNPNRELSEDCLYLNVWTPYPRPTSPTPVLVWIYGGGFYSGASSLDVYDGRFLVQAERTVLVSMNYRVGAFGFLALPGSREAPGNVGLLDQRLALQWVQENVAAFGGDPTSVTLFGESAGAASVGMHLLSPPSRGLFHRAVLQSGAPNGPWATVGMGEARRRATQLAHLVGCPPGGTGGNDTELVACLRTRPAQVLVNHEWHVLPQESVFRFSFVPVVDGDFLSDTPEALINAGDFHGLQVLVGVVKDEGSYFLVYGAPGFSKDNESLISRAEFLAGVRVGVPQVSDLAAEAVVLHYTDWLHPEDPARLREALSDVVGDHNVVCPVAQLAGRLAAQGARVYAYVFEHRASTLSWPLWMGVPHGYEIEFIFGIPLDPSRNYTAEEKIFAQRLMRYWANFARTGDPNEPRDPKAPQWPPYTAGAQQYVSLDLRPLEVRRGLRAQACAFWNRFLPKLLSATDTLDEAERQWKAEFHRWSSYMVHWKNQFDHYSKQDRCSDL

Row | SMILES | Activity [1] | Activity (Staphylococcus aureus) | Activity (K562 [2]) | Activity (Escherichia coli) | Activity (A549 [3]) | IC50 (A549 [4]) | IC50 (K562 [5])
1 | C/C(=C\C[C@@]1(c2ccccc2N(C)C)CCN(C)C1=O)C(=O)O | inactive | inactive | inactive | inactive | inactive | – | –
2 | O=c1[nH]cc(F)c(=O)[nH]1 [FLUOROURACIL] | – | – | – | – | – | 20.8 µM | –
3 | C/C(=C\C[C@@]12CCN(C)[C@@H]1[N+](C)(C)c1ccccc12)C(=O)[O-] | inactive | inactive | inactive | inactive | inactive | – | –
4 | C/C(=C\C[C@@]12CCN(C)[C@@H]1[N+](C)(C)c1ccccc12)C(=O)N[C@@H](Cc1ccccc1)C(=O)[O-] | inactive | inactive | inactive | inactive | inactive | – | –
5 | COc1cccc2c1C(=O)c1c(O)c3c(c(O)c1C2=O)C[C@@](O)(C(=O)CO)C[C@@H]3O[C@H]1C[C@H](N)[C@H](O)[C@H](C)O1 [DOXORUBICIN] | – | – | – | – | – | – | 0.32 µM
